Laboratory results published in PMC12118597 (Science Advances, 2025).
Read-outs that look alike come from different tables or passages of the source.

Columns and labels:
[1] = target: T1, SARS-CoV-2 NSP3 macrodomain (Mac1) (Severe acute respiratory syndrome coronavirus 2, UniProt P0DTD1); assay: biochemical; assay type: binding
[2] = target: T1, SARS-CoV-2 NSP3 macrodomain (Mac1); assay type: binding; conditions: for binding by crystal soaking: P43 crystal form, repeated attempts, result in words
[3] = compound at 200 μM, mean of three to four technical replicates, read-out: % competition at 200 μM (preliminary HTRF screen)
[4] = ligand modeling, Mac1 crystal soak
[5] = SARS CoV-2 macrodomain HTRF assay
[6] = SARS CoV-2 macrodomain HTRF assay, dose-response, read-out: IC50

Structure (SMILES) | Ki [1, 5] [µM] | Ligand efficiency (binding enery per heavy atom) [1, 5] | IC50 [1, 6] [µM] | further results
Nc1ncnc2c1ncn2[C@@H]1O[C@H](COP(=O)(O)OP(=O)(O)OC[C@H]2O[C@@H](O)[C@H](O)[C@@H]2O)[C@@H](O)[C@H]1O.[Na].[Na] [ADP-ribose, reference compound] | – | – | – | Hill slope ([1]; HTRF binding curve, SARS-CoV-2 Mac1): 1.1; X-ray crystal structure ([2]; TRUE = crystal structure with ligand obtained): TRUE
O=C(O)C1CCCN1S(=O)(=O)c1cccc2nsnc12 (stereo not drawn) [AVI-2] | – | – | – | inhibition at 200 µM [1, 3]: 23%; Number of isomers bound [2, 4]: 1
c1ccc(-n2nnnc2CSc2nnc(NC3CC3)s2)cc1 [AVI-286] | – | – | – | Number of isomers bound [2]: 1
COC1CCCN(S(=O)(=O)c2cc(Cl)cnc2N)C1 (stereo not drawn) [AVI-290] | – | – | – | binding by crystal soaking [2]: failed to observe binding
Nc1ncc(Cl)cc1S(=O)(=O)N1CCCC(O)C1 (stereo not drawn) [AVI-295] | – | – | – | binding by crystal soaking [2]: failed to observe binding
Nc1nnc(SCCn2c(=O)oc3ccccc32)s1 [AVI-296] | – | – | – | Number of isomers bound [2]: 1
CC1CC(C(=O)O)CCN1C(=O)c1ccc2c(c1)OCC(=O)N2 (stereo not drawn) [AVI-303] | – | – | – | inhibition at 200 µM [1, 3]: < 10%; inhibition at 200 µM ([1]; single dose concentration 200 μM (TS-FrankenROCS series), read-out: Average % competition): < 10%; Number of isomers bound [2, 4]: 1
O=C(Nc1ccsc1C(=O)O)c1ccc2c(c1)OCO2 [AVI-316] | – | – | – | Number of isomers bound [2, 4]: 1
Cc1sc2ncnc(Sc3ccccc3C(=O)O)c2c1C [AVI-317] | – | – | – | Number of isomers bound [2, 4]: 1
O[C@H]1COC[C@@H]1Nc1ncnc2[nH]ccc12 [AVI-1444, (3R,4S)-4-((7H-pyrrolo[2,3-d]pyrimidin-4-yl)amino)tetrahydrofuran-3-ol] | – | – | – | Number of isomers bound [2, 4]: 1
OC1(CNc2ncnc3[nH]ccc23)CCC2(CC1)OCCO2 [AVI-4315] | 200 | 0.23 | 210 | –
O=S1(=O)CCCC(O)(CNc2ncnc3[nH]ccc23)C1 (stereo not drawn) [AVI-4317] | 100 | 0.28 | – | IC50 ([1]; read-out: IC50 (confirmatory HTRF dose-response screen)): 110 µM
CN(CC1(O)CCOCC1)c1ncnc2[nH]ccc12 [AVI-4318] | 66 | 0.30 | 71 | –
OC1(CNc2ncnc3[nH]ccc23)CCSCC1 [AVI-4319] | 160 | 0.29 | 170 | –
OC1(CNc2ncnc3[nH]ccc23)CC2CCC1CC2 (stereo not drawn) [AVI-4320] | 77 | 0.28 | 83 | –
CC(Nc1ncnc2[nH]ccc12)C1(O)CCCCC1 (stereo not drawn) [AVI-4321] | 45 | 0.32 | 48 | –
OC1(CNc2ncnc3[nH]ccc23)CCCSC1 (stereo not drawn) [AVI-4322] | 49 | 0.33 | 53 | –
Cc1c[nH]c2ncnc(NCC3(O)CCC(O)CC3)c12 (stereo not drawn) [AVI-4329] | – | – | – | Isomers modeled ([2]; stereoisomer(s)/conformations of the soaked ligand modeled in the Mac1 crystal structure): rr,rr
Cc1c[nH]c2ncnc(NCC3(O)CCC(C)(C)CC3)c12 [AVI-4330] | 610 | 0.21 | 650 | –
CC(C)C1CCCN1c1ncnc2[nH]ccc12 (stereo not drawn) [AVI-5216] | – | – | – | inhibition at 200 µM ([1]; SARS CoV-2 macrodomain HTRF assay, single dose concentration 200 μM, read-out: Average % competition): 35%; inhibition at 200 µM [1, 3]: 35%
CC(C)(CO)Nc1ncnc2[nH]ccc12 [AVI-5266] | 30 | – | 32 | –
OCC1(Nc2ncnc3[nH]ccc23)COC1 [AVI-5649] | – | – | – | Average % competition ([1]; Single dose, concentration 200 μM): <10%; inhibition at 200 µM [1, 3]: < 10%
OCC1C=CCCN1c1ncnc2[nH]ccc12 (stereo not drawn) [AVI-5998] | 150 | 0.31 | 160 | –
OCC1CC=CCN1c1ncnc2[nH]ccc12 (stereo not drawn) [AVI-6002] | 48 | 0.35 | 52 | –
Nc1cccc(CSC2CCc3ccccc32)n1 (stereo not drawn) [AVI-6015] | – | – | – | IC50 ([1]; read-out: IC50): > 1000 µM
CC(O)C1CCN(c2cc(N3CCC(c4ccccc4)CC3C)ncn2)C1 (stereo not drawn) [AVI-6016] | – | – | – | IC50 ([1]; read-out: IC50): > 1000 µM
Nc1ncnc(N2CCCCC3(CCC3)C2)c1Cl [AVI-6017] | – | – | – | IC50 ([1]; read-out: IC50): > 1000 µM
OC1(CNc2ncnc3[nH]ccc23)CCCCC1 [AVI-6217] | 39 | 0.34 | 42 | –
